In patent publication US20250333398A1, “MONOARYL AND HETARYL SUBSTITUTED INDAZOLES AND BENZIMIDAZOLES AS STING ANTAGONISTS AND THE USE THEREOF AS MEDICAMENT” (Boehringer Ingelheim International GmbH, priority 2024, published 2025):

What was measured:
[1] = test system: T1, wild-type (GRR) human STING cGAMP binding domain (residues 155-341); test: Differential Scanning Fluorimetry (DSF), stability of STING protein against thermal denaturation; conditions: 100 uM compound, 3 uM target protein
T1 construct: His-TEV-hSTING (WT); TEV protease cleavage site (N); made in house; host or cells: E. coli BL21 DE3
Method: Dye fluorescence is quenched in aqueous environment and increases upon association of the dye with the hydrophobic parts of the unfolding protein. […] The inflection point of the curve represents the “melting” temperature of the protein (Tm) which is calculated numerically using the Boltzmann equation.
Method: The thermal stability of the STING protein was measured using a specific expression construct of the cGAMP binding domain of wild-type (GRR) human STING comprising residues 155-341 and a N-terminal 8x His-tag in assay buffer containing 20 mM Tris, 150 mM NaCl at pH7.5.
The assay uses Hard-Shell®PCR Plates 384-Well CLR/WHT (Catalog #HSP3805, BIO-RAD), Microseal®‘B’ Adhesive Seals for PCR Plates (Catalog #MSB-1001, BIO-RAD) and was run on a CFX384 Real-Time System (Bio-Rad).
A DMSO stock solution of SYPRO orange (SIGMA S5692-500UL) was prepared.
Compound stock solutions (10 mM in DMSO) were diluted 1:2 in DMSO to an intermediate compound concentration of 5 mM and then further diluted 1:40 in assay buffer resulting in a compound concentration of 125 μM and 2.5% DMSO.
Fluorescent dye stock solution (5000×SYPRO Orange) was then mixed with target protein and buffer to a concentration of 15 uM Protein and 25×SYPRO Orange. 2 ul of this protein-dye-mixture was added to 8 ul compound solution. Final volume was 10 uL. 3-6 well positions were used as negative control (protein with 2% DMSO). The plates were prepared for duplicate measurement and centrifuged for 2 min at 1000 g. In the measurement, 160 cycles of 0.5° C. were used (temperature ramp 15 s/cycle, 15° C. to 95° C.).
Final Assay concentrations for compound characterization were as follows:
100 uM compound, 3 uM target protein, 5×SYPRO Orange, 2% DMSO in 10 ul. All dispensing steps were performed using a HamiltonStar pipetting robot (Hamilton).
Dissociation curves were processed in Bio-Rad CFX Manager. Peak type was set to “negative”.
Compound codes for screen were assigned in the plate layout.
Two replicates of TM measurements were averaged, and the standard deviation was calculated. In cases of SD>1.5° C. the measurement was repeated.
The melting point (Tm) obtained for STING protein alone was subtracted from T obtained for protein incubated with ligand to generate ΔTm values.
Protein production and purification: The protein used for the biophysical experiments was a recombinant human STING protein comprising its cytosolic ectodomain. A codon optimized DNA sequence (for expression in Escherichia coli) encoding amino acid residues 155 to 341 (Swiss Prot Q86WV6) of human STING (WT) was synthesized by GeneArt (Regensburg, Germany) and inserted into a pET17b E. coli expression vector. The protein construct encodes an N-terminal 8× His-tag followed by tobacco etch virus protease (TEV) cleavage site and the above STING gene sequence. The resulting protein sequence for the used STING variant is listed below:
For expression of recombinant human STING above construct was transformed into E. coli BL21 DE3 strain and grown in shake flasks in LB-medium at 37° C. Expression was induced by addition of isopropyl β-D-1-thiogalactopyranoside to a final concentration of 1 mM and cultures shaken overnight. Cell pellets were centrifuged and stored at −70° C. until further use. Protein was purified by cell thawing in lysis buffer (20 mM TRIS-HCl, pH 8, 300 mM NaCl, 2 mM mercaptoethanol, 20 mM imidazole, Complete Protease Inhibitor (Roche) and DNase (Roche)), followed by metal affinity purification using Ni-NTA resins and elution buffer consisting of 20 mM TRIS-HCl, pH 8, 300 mM NaCl, 2 mM mercaptoethanol, 300 mM imidazole and size exclusion chromatography in running buffer (20 mM TRIS-HCl, pH 8, 100 mM NaCl, 2 mM DTT). The peak fraction was collected and concentrated to 2.5 mg/mL.

STING = test system: T2, STING; test: Human whole blood assay (HWBA), cGAMP-stimulated IFNα2α production; format: cell-based; conditions: human whole blood stimulated by cGAMP
T2 construct: from tissue; host or cells: human whole blood from healthy donors
Method: For the detection of STING inhibition in physiological environment human whole blood was stimulated by the cyclic dinucleotide cGAMP. Pathway activity was monitored by measuring the IFNα2α production.
Assay method: Compounds were delivered as 10 mM DMSO solution and serial diluted and transferred to the 96-well Cell culture Plate (Corning #3595), prefilled with 20 μl OptiMEM (Gibco #11058-021) in each well, using an Echo acoustic dispenser. Typically, 8 concentrations were used with the highest concentration at 10 μM in the final assay volume followed by ^˜1:5 dilution steps. DMSO concentration was set to 0.1% in the final assay volume. The 96 well assay plate contained 9 test compounds, a reference compound and DMSO in control wells.
Collection of human whole blood from 3 or more healthy donors (male or female, no medication for 7 days, exception contraceptive and thyroxine) as Na-citrate blood (e.g. 3.8% in Monovettes from Sarstedt) is conducted in parallel. Whole blood was kept at room temperature for a maximum of 3 hours after collection until use in the assay.
160 μl of the whole blood samples were transferred to each well of the 96-well assay plates filled with compound/OptiMEM. All assay plates are prepared as duplicates with blood from different donors. Blood plates were kept at room temperature for 60 minutes and continuous shaking with 450 rpm, covered with the lid, but not sealed.
A 10× cGAMP assay solution was diluted from a 2 mM stock solution in 1×HBSS immediately before use at room temperature. 20 μl of the 10× cGAMP/HBSS were added to all compound and all high control wells, whereas HBSS only was added to all low control wells.
After covering assay plates with aera seals and the lid, blood plates were kept at room temperature for 30 minutes and continuous shaking with 450 rpm, followed by an overnight incubation of 22 h at 37° C. in the incubator, without shaking.
For the detection of IFNα-2α in human plasma, the biotinylated capture antibody (Antibody set IFNA2, Meso Scale Diagnostics #B21VH-3, including coating and capture antibody) was diluted 1:17.5 in Diluent 100 (Meso Scale Diagnostics #R50AA-4, according to the manufacturer. U-Plex MSD GOLD 96-well Small Spot Streptavidin SECTOR Plates (Meso Scale Diagnostics #L45SA-5) were coated with 25 μl diluted capture antibody. Coated plates were incubated for 60 min at room temperature under continuous shaking at 700 rpm. MSD IFNα-2α plates were washed three times with 150 μl wash buffer (1×HBSS, 0.05% Tween).
After blocking the plates with 100 μl block solution/well (1×HBSS with 0.2% Tween, 2% BSA) for 60 min at room temperature and continuous shaking at 700 rpm, plates were emptied as dry as possible by dumping just before continuing with the human plasma. Whole Blood assay plates were centrifuged at 1600 rpm for 10 minutes. 25 μl of supernatant was transferred with a pipetting robotics from each whole blood plate to the corresponding IFNα-2α plate. Plates were sealed with microplate seals and kept at room temperature again under continuous shaking at 700 rpm for two hours. Next MSD IFNα-2α plates were washed three times with 150 μl wash buffer (1×HBSS, 0.05% Tween), before adding 25 μl MSD SULFO-TAG IFNα-2α Antibody solution (1:100 diluted in Diluent 3 (Meso Scale Diagnostics #R50AP-2) to each well of the plates. Afterwards plates were sealed with microplate seals and kept at room temperature again under continuous shaking at 700 rpm for two hours. Finally, MSD IFNα-2α plates were washed three times with 150 μl wash buffer (1×HBSS, 0.05% Tween). 150 μl 2× Read buffer was added to each well and plates were immediately measured with the MSD Sector S600 Reader using the vendor barcode.
Data evaluation and calculation: For data evaluation and calculation, % control calculation of each well was based on the mean of high (cGAMP stimulated control) and mean of low (unstimulated control) controls by using the following formula: […]

Row | SMILES | DSF ΔTm (K) [1] [K] | IC50 (STING) [µM]
1 | CNC(=O)c1ccc(-c2nc(-c3cccc4nn(-c5cn(C6CC6)nc5OC)cc34)c(C3CC3)n2C)c(OC(F)(F)F)c1 [Example 1, 4-{5-cyclopropyl-4-[2-(1-cyclopropyl-3-methoxy-1H-pyrazol-4-yl)-2H-indazol-4-yl]-1-methyl-1H-imidazol-2-yl}-N-methyl-3-(trifluoromethoxy)benzamide] | 28 | 0.082
2 | Cn1c(-c2ccc(P(C)(C)=O)cc2OC(F)(F)F)nc(-c2cccc3nn(-c4cc(C(F)(F)F)[nH]n4)cc23)c1C1CC1 [Example 21, 4-{5-cyclopropyl-2-[4-(dimethylphosphoryl)-2-(trifluoromethoxy)phenyl]-1-methylimidazol-4-yl}-2-[5-(trifluoromethyl)-1H-pyrazol-3-yl]indazole] | 29 | 0.13
